Laboratory results published in PMC4546618, “Casitas B-Lineage Lymphoma RING Domain Inhibitors Protect Mice against High-Fat Diet-Induced Obesity and Insulin Resistance” (PLoS ONE, 2015).
Read-outs that look alike come from different tables or passages of the source. Where a SMILES comes first, the peptide text is derived from it. [ ]: non-standard residue; d: D form. Pro(trans-4-F) = O=C(O)[C@@H]1C[C@@H](F)CN1; Phg = N[C@H](C(=O)O)c1ccccc1; ΔPro = O=C(O)[C@@H]1C=CCN1; Pip = O=C(O)[C@@H]1CCCCN1; Thz = O=C(O)[C@@H]1CSCN1; Aze = O=C(O)[C@@H]1CCN1

Assays:
Cbl (RING) protein = biological target: T1, Cbl (RING) protein (Homo sapiens, UniProt P22681); experiment: Fluorescence polarization (FP) assay, competition with FITC-βA-PFKPP-NH2 probe; type: binding; details: probe FITC-βA-PFKPP-NH2 100 nmol/L, Cbl (RING) protein 3 μmol/L, PBS pH 7.4
T1 construct: including the linker and RING domain (codon 358–457); GST (Glutathione S-Transferase); made in house
T1 sequence (P22681 358-457): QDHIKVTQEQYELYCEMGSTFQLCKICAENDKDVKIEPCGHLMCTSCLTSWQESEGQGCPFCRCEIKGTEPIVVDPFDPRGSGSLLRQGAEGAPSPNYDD
Description: Peptides and peptide mimetics were purchased from MitenChem (China) with a purity ≥ 98%. Concentrations values of reconstituted peptides were determined by amino acid analysis at the protein core facility (Chengdu Medical College). The recombinant Cbl protein was produced by the Chengdu Medical College Protein Core Facility and was described previously. The c-Cbl (RING) protein, including the linker and RING domain (codon 358–457), was tagged with Glutathione S-Transferase (GST) and purified with GSH-Sepharose (Shanghai Biopharma).
The FP assay was developed and validated previously. Briefly, fluorescein-labeled probe (FITC-βA-PFKPP-NH2, 100 nmol/L) and Cbl (RING) protein (3 μmol/L) were mixed and diluted to the final concentration using 0.01% Triton X-100 in PBS (pH = 7.4). Then, 19 μl of this master mix was loaded to each reaction well. The peptides or peptide mimetics were then loaded to the designated wells (1 μl, 10 μmol/L– 0.078 μmol/L, half-fold dilutions). The total fluorescence and polarization values were measured at an excitation wavelength of 485 nm and an emission wavelength of 538 nm using a ZS-2 plate reader. The data was fitted, and the ΔmP, Kd, and Ki values were estimated, using SigmaPlot 11.0.

mice = experiment: Acute toxicity in mice; type: in vivo; details: up to 15 mg/kg i.p.; for signs of acute toxicity: 72 hours; for death of animals: another 14 days following the initial examination; for H&E staining of livers, spleens and kidneys: end of experiment
Description: (§1) All experiments were approved by the institutional Animal Care and Use Committee (Chengdu Medical College, China). All experiments were carried out in 10-week-old male mice maintained on the C57BL/6 background. All the animals were kept on a 12-h light/dark cycle with free access to food and water.
The control group (n = 10) received vehicle only. Eight groups (10 mice each) were treated with increasing doses of either peptide 1, 3, 10, 34, 2, 60, 49, and 51 up to 15 mg/kg by i.p. Number of death, sedation, spontaneous motor activity, alertness, ptosis, dyspnea, convulsion, diarrhea, urination, postural reflex, piloerection, nociception, grooming, vocalization, rearing, climbing and aggression were observed every 12 hours for 72 h. Animals were maintained for another 14 days after the initial examination. We planned to sacrifice the animals if they show severe signs of pain or distress, a body weight loss in excess of 15% of its body weight, or a deterioration of the body condition score to BC2(-) or below. However, none of the animals qualified for the mentioned the symptoms. No animals died during the whole study. At the end of the experiment, animals were euthanized by CO2 asphyxiation followed by cervical dislocation, the livers, spleens and kidneys were collected and formalin-fixed paraffin-embedded for H&E staining.

[1] = Pharmacokinetic studies, plasma concentration after i.p. injection; type: in vivo; details: mice, i.p. 4 mg/kg; for Cmax: male, C57BL/6, mouse, plasma, ip, read-out: maximum concentration in plasma; for plasma concentrations compared to the parental peptides 1 and 2: at each time point after 1 hour
Description: as §1
Peptides (1, 3, 10, 34, 2, 60, 49, and 51) were dissolved in sterile aqueous 5% dextrose and administered to mice by i.p. injection (4 mg/kg). Blood samples were collected from the tail tip at 0, 0.5, 1, 6, 12, 18, 24 and 48 hours. Plasma samples were harvested by centrifugation and stored at -80°C until assayed. Peptide concentrations in plasma were determined by Reversed-Phase High-Performance Liquid Chromatography (RP-HPLC) with electrospray ionization mass spectrometric ([…]) detection. Samples were assayed with a series of 8 calibration standards of peptide in plasma at concentrations ranging from 50 to 6000 μg/L. Peptide concentrations were determined by comparing to the standards.

mice fed a high-fat diet [2] = experiment: High-fat diet-induced obesity: body weight, food intake, body composition, adipocyte volume; type: in vivo; details: daily i.p. 5 mg/kg, 12 weeks; for percentage of perigonadal fat mass: NMR, vehicle 8 ± 0.8%; for adipocyte volume: adipocytes from epididymal fat pad, vehicle 510 ± 42 pL
Description: as §1
(§2) Animals (n = 90) were randomly assigned to one of the nine groups (Table 1). Animals were fed ad libitum with a high-fat diet (60% of caloric intake from fat (70% saturated fat), 20% from carbohydrates, and 20% from protein) before experiments and for another 12 weeks during the experiments. Food intake was measured manually on a daily basis. Eight groups of animals were treated with indicated peptides with a daily i.p. injection at 5 mg/kg and one group of animals were treated with vehicle.
Body composition was measured using nuclear magnetic resonance (NMR) technology at Chengdu College core facility. Epididymal fat pads were excised and adipocytes were isolated. Cells were then fixed using 2% OsO4 in PBS overnight at 37°C [2].

mice fed a high-fat diet [3] = experiment: Glucose tolerance test after 12 weeks of treatment on high-fat diet; type: in vivo; details: overnight fasted mice, 2 g/kg glucose i.p., after 12 weeks daily i.p. 5 mg/kg on high-fat diet
Description: as §1, §2
After receiving 12 weeks of treatment as described above, glucose tolerance tests were performed in overnight fasted mice. Each mouse received a 2 g/kg glucose through i.p. Blood samples were obtained from the tail tip at 0, 30, 60, 90, and 120 min. Insulin concentrations were measured using mouse insulin Elisa kits (ChrystalChem) using mouse standards. Glucose levels were measured using a glucometer (Roche).

mice fed a high-fat diet [4] = experiment: Indirect energy expenditure and physical activity measurement; type: in vivo; details: after 12 weeks daily i.p. 5 mg/kg on high-fat diet; for Oxygen consumption VO2: vehicle 4.15 ± 0.55; for Ambulatory day activity / Ambulatory night activity: photobeam break counts; for Ambulatory day activity: vehicle 2,069 ± 705; for Ambulatory night activity: vehicle 6,289 ± 1,216
Description: as §1, §2
After receiving 12 weeks of treatment as described above, rates of oxygen consumption (VO2) was measured using a four-chamber indirect calorimeter (Langguan, China, air flow of 0.5 l/min). A total of 2-hour measurement for each animal was conducted at 15-minuate intervals under room temperature (22°C). Ambulatory activity was estimated by counting the number of photobeam breaks in a three-sensor chamber instrument (Rui Pharm, China), and the cumulative ambulatory activity counts were recorded every hour. A total of 12 h-day time and 12 h-night activity were recorded for each animal.

CC(=O)N1CCC[C@H]1C(=O)N[C@H](C(=O)N[C@@H](CCCCN)C(=O)N1CCC[C@H]1C(=O)N1CCC[C@H]1C(N)=O)c1ccccc1 [Peptide 3, Ac-P(a)KPP-NH2] (Ac-P[Phg]KPP-NH2)
Ki (Cbl (RING) protein): > 500 µM | signs of acute toxicity (mice): did not show vital signs of acute toxicity | death of animals (mice): None of the animals died | H&E staining of livers, spleens and kidneys (mice): does not show any sign of injuries | Cmax ([1]; observed in 60 min): 4020 ng/mL | plasma concentrations compared to the parental peptides 1 and 2 [1]: greater plasma concentrations | percentage of perigonadal fat mass (mice fed a high-fat diet [2]): 7.1 ± 0.4% | adipocyte volume (mice fed a high-fat diet [2]): 505 ± 34 pL | glucose tolerance compared to the vehicle group (mice fed a high-fat diet [3]): not statistically significant | Oxygen consumption VO2 (mice fed a high-fat diet [4]): 3.78 ± 0.29 mL/g/h | Ambulatory day activity (mice fed a high-fat diet [4]): 2,158 ± 763 per 12 h | Ambulatory night activity (mice fed a high-fat diet [4]): 6,058 ± 1,298 per 12 h

CC(=O)CN(CCCC[C@H](NC(=O)[C@@H](NC(=O)[C@H](C)NC(=O)[C@@H]1CCCN1C(=O)[C@H](CCCCN(O)C(C)=O)NC(C)=O)[C@@H](C)O)C(N)=O)C(C)=O [Peptide 44, Ac-(v)PAT(w)-NH2]
Ki (Cbl (RING) protein): 126 ± 22.6 µM

CC(=O)CN(CCCC[C@H](NC(C)=O)C(=O)N1CCC[C@H]1C(=O)N[C@@H](C)C(=O)N[C@H](C(=O)N[C@@H](CCCCN(O)C(C)=O)C(N)=O)[C@@H](C)O)C(C)=O [Peptide 45, Ac-(w)PAT(v)-NH2]
Ki (Cbl (RING) protein): 196 ± 12.3 µM

CC(=O)N[C@@H](CCCCN)C(=O)N1CC=C[C@H]1C(=O)N[C@@H](C)C(=O)N[C@H](C(=O)N[C@@H](CCCCN)C(N)=O)[C@@H](C)O [Peptide 47, Ac-K(p)ATK-NH2] (Ac-K[ΔPro]ATK-NH2)
Ki (Cbl (RING) protein): 44.3 ± 13.2 µM

CC(=O)N[C@@H](CCCCN)C(=O)N1CC[C@H]1C(=O)N[C@@H](C)C(=O)N[C@H](C(=O)N[C@@H](CCCCN)C(N)=O)[C@@H](C)O [Peptide 48, Ac-K(q)ATK-NH2] (Ac-K[Aze]ATK-NH2)
Ki (Cbl (RING) protein): 59.6 ± 13.5 µM

CC(=O)N[C@@H](CCCCN)C(=O)N1CCCC[C@H]1C(=O)N[C@@H](C)C(=O)N[C@H](C(=O)N[C@@H](CCCCN)C(N)=O)[C@@H](C)O [Peptide 50, Ac-K(s)ATK-NH2] (Ac-K[Pip]ATK-NH2)
Ki (Cbl (RING) protein): 32.6 ± 10.9 µM

CC(=O)N[C@@H](CCCCN)C(=O)N1CSC[C@H]1C(=O)N[C@H](C(=O)N[C@H](C(=O)N[C@@H](CCCCN)C(N)=O)[C@@H](C)O)C(C)C [Peptide 53, Ac-K(r)VTK-NH2] (Ac-K[Thz]VTK-NH2)
Ki (Cbl (RING) protein): 91.2 ± 6.6 µM

CC(=O)N[C@@H](CCCCN)C(=O)N1CSC[C@H]1C(=O)N[C@H](C(=O)N[C@H](C(=O)N[C@@H](CCCCN)C(N)=O)[C@@H](C)O)[C@@H](C)O [Peptide 54, Ac-K(r)TTK-NH2] (Ac-K[Thz]TTK-NH2)
Ki (Cbl (RING) protein): 201 ± 14.4 µM

CC[C@H](C)[C@H](NC(=O)[C@@H]1CSCN1C(=O)[C@H](CCCCN)NC(C)=O)C(=O)N[C@H](C(=O)N[C@@H](CCCCN)C(N)=O)[C@@H](C)O [Peptide 55, Ac-K(r)ITK-NH2] (Ac-K[Thz]ITK-NH2)
Ki (Cbl (RING) protein): 190 ± 19.2 µM

CC(=O)N[C@@H](CCCCN)C(=O)N1CSC[C@H]1C(=O)N[C@@H](CC(C)C)C(=O)N[C@H](C(=O)N[C@@H](CCCCN)C(N)=O)[C@@H](C)O [Peptide 56, Ac-K(r)LTK-NH2] (Ac-K[Thz]LTK-NH2)
Ki (Cbl (RING) protein): 226 ± 22.5 µM

CC(=O)N[C@@H](CCCCN)C(=O)N1C[C@H](F)C[C@H]1C(=O)N[C@@H](C)C(=O)N[C@@H](C)C(=O)N[C@@H](CCCCN)C(N)=O [Peptide 57, Ac-K(t)AAK-NH2] (Ac-K[Pro(trans-4-F)]AAK-NH2)
Ki (Cbl (RING) protein): 179 ± 10.2 µM

CC(=O)N[C@@H](CCCCN)C(=O)N1C[C@H](F)C[C@H]1C(=O)N[C@@H](C)C(=O)N[C@H](C(=O)N[C@@H](CCCCN)C(N)=O)C(C)C [Peptide 58, Ac-K(t)AVK-NH2] (Ac-K[Pro(trans-4-F)]AVK-NH2)
Ki (Cbl (RING) protein): 126 ± 3.2 µM

CC[C@H](C)[C@H](NC(=O)[C@H](C)NC(=O)[C@@H]1C[C@@H](F)CN1C(=O)[C@H](CCCCN)NC(C)=O)C(=O)N[C@@H](CCCCN)C(N)=O [Peptide 59, Ac-K(t)AIK-NH2] (Ac-K[Pro(trans-4-F)]AIK-NH2)
Ki (Cbl (RING) protein): 145 ± 18.3 µM

CC(=O)N[C@@H](CCCCN)C(=O)N1C[C@H](F)C[C@H]1C(=O)N[C@@H](C)C(=O)N[C@@H](CC(C)C)C(=O)N[C@@H](CCCCN)C(N)=O [Peptide 60, Ac-K(t)ALK-NH2] (Ac-K[Pro(trans-4-F)]ALK-NH2)
Ki (Cbl (RING) protein): 228 ± 20.2 µM | signs of acute toxicity (mice): did not show vital signs of acute toxicity | death of animals (mice): None of the animals died | H&E staining of livers, spleens and kidneys (mice): does not show any sign of injuries | Cmax ([1]; observed in 60 min): 4280 ng/mL | plasma concentrations compared to the parental peptides 1 and 2 [1]: greater plasma concentrations | percentage of perigonadal fat mass (mice fed a high-fat diet [2]): 7.8 ± 0.7% | adipocyte volume (mice fed a high-fat diet [2]): 520 ± 26 pL | Oxygen consumption VO2 (mice fed a high-fat diet [4]): 4.16 ± 0.29 mL/g/h | Ambulatory day activity (mice fed a high-fat diet [4]): 2,025 ± 945 per 12 h | Ambulatory night activity (mice fed a high-fat diet [4]): 5,993 ± 1,278 per 12 h

Ac-KPATK-NH2 [Peptide 2, Ac-KPATK-NH2]
Ki (Cbl (RING) protein): 4.7 ± 1.2 µM | signs of acute toxicity (mice): did not show vital signs of acute toxicity | death of animals (mice): None of the animals died | H&E staining of livers, spleens and kidneys (mice): does not show any sign of injuries | Cmax ([1]; observed in 30 min): 3370 ng/mL | percentage of perigonadal fat mass (mice fed a high-fat diet [2]): 6.7 ± 0.5% | adipocyte volume (mice fed a high-fat diet [2]): 440 ± 58 pL | Oxygen consumption VO2 (mice fed a high-fat diet [4]): 4.22 ± 0.42 mL/g/h | Ambulatory day activity (mice fed a high-fat diet [4]): 2,342 ±1,002 per 12 h | Ambulatory night activity (mice fed a high-fat diet [4]): 6,721 ± 1,032 per 12 h
